{"source": "patent US20230074545A1", "about": "“TREATMENT OF CANCER WITH CDK12/13 INHIBITORS” (Kinnate Biopharma Inc., priority 2019, published 2023)", "test_in_all_cases": "Radiometric kinase panel", "assay_type_in_all_cases": "biochemical", "key": {"RON": {"biological_target": "T1, RON (Homo sapiens, UniProt Q04912)", "T1 construct": "purchased ProQinase GmbH (Reaction Biology)", "T1 sequence (Q04912 25-1400)": "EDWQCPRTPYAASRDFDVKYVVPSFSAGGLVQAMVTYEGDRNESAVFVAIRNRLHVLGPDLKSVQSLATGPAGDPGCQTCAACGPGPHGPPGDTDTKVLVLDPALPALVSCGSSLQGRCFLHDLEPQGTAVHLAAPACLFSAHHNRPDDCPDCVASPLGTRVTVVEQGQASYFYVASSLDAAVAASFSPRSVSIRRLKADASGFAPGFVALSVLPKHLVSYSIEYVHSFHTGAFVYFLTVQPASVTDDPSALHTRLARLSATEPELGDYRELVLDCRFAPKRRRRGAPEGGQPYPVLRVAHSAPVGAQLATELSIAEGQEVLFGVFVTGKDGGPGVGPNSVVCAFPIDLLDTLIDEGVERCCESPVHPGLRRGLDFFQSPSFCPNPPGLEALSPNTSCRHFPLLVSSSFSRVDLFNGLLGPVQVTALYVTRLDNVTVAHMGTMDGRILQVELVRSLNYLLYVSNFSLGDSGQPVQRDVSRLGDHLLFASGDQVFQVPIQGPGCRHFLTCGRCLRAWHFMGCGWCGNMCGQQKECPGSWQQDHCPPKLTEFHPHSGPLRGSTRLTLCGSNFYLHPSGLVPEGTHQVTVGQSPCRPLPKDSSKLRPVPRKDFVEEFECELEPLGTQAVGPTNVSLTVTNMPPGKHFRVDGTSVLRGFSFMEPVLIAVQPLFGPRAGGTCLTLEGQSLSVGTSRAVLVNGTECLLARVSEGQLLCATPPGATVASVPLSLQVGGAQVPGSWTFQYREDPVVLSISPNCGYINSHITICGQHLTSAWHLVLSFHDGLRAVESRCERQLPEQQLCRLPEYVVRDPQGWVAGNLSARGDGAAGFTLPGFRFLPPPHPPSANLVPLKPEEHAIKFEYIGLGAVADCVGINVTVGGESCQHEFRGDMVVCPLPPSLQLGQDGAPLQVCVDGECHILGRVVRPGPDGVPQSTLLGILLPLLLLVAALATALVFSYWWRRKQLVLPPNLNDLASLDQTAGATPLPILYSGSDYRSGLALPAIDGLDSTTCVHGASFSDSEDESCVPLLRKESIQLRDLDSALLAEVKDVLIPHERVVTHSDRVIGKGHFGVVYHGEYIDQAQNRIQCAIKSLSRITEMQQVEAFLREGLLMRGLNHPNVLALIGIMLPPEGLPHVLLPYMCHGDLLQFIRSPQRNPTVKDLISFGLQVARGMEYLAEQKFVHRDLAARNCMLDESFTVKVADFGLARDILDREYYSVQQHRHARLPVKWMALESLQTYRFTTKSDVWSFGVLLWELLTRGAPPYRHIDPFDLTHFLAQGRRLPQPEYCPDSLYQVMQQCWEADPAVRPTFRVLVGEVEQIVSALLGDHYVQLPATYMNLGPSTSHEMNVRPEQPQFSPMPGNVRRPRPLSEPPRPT", "in_short": "(§1)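 Activity was measured radiometrically from [gamma-33P]-ATP incorporation into substrate. The kinases were recombinant human GST- or His-tagged proteins, full-length or active fragments, expressed in Sf9 or E. coli. Compound in 10% DMSO was added before the enzyme/substrate mix, which started the reaction.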"}, "NEK11": {"biological_target": "T2, NEK11 (Homo sapiens, UniProt Q8NG66)", "T2 construct": "either as full-length or enzymatically active fragments; purchased ProQinase GmbH (Reaction Biology)", "T2 sequence (Q8NG66 whole entry, the tested form may be a part)": "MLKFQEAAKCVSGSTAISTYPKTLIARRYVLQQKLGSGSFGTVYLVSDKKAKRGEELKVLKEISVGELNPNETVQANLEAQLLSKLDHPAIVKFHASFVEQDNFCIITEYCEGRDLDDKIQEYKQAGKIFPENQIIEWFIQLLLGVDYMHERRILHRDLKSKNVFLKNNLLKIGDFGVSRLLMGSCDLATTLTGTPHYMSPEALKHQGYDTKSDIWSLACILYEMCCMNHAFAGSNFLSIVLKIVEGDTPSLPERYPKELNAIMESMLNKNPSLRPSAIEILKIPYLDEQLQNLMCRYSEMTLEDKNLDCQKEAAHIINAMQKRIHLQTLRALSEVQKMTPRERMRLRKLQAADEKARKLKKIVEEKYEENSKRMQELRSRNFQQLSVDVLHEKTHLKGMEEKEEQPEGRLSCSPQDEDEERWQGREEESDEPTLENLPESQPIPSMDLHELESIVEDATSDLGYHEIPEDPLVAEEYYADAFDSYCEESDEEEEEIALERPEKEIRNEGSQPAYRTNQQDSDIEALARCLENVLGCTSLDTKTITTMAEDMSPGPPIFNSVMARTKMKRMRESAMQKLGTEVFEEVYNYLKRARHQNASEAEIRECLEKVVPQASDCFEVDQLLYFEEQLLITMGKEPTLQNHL", "in_short": "as §1"}, "PKCtheta": {"biological_target": "T3, PKCtheta (Homo sapiens, UniProt Q04759)", "T3 construct": "purchased ProQinase GmbH (Reaction Biology); host or cells: Sf9 insect cells or E. coli (not specified per kinase)", "in_short": "as §1"}, "FGFR2": {"biological_target": "T4, FGFR2 (Homo sapiens, UniProt P21802)", "T4 construct": "purchased ProQinase GmbH (Reaction Biology); host or cells: Sf9 insect cells or E. coli (not specified per kinase)", "in_short": "as §1"}, "PAK3": {"biological_target": "T5, PAK3 (Homo sapiens, UniProt O75914)", "T5 construct": "purchased ProQinase GmbH (Reaction Biology); host or cells: Sf9 insect cells or E. coli (not specified per kinase)", "in_short": "as §1"}, "p38alpha": {"biological_target": "T6, p38alpha (Homo sapiens, UniProt Q16539)", "T6 construct": "either as full-length or enzymatically active fragments; purchased ProQinase GmbH (Reaction Biology)", "T6 sequence (Q16539 whole entry, the tested form may be a part)": "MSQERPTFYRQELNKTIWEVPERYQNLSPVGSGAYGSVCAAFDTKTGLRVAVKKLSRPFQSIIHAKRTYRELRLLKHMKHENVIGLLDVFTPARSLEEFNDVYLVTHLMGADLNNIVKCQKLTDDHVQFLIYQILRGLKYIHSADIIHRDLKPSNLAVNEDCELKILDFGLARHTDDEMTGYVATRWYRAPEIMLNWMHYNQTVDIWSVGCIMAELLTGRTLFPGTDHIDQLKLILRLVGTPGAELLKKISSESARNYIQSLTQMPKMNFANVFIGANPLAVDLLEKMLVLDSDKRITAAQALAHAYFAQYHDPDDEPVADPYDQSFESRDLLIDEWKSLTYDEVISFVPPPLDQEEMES", "in_short": "as §1"}, "ULK2": {"biological_target": "T7, ULK2 (Homo sapiens, UniProt Q8IYT8)", "T7 construct": "either as full-length or enzymatically active fragments; purchased ProQinase GmbH (Reaction Biology)", "in_short": "as §1"}, "MKK4": {"biological_target": "T8, MKK4 (Homo sapiens, UniProt P45985)", "T8 construct": "either as full-length or enzymatically active fragments; purchased ProQinase GmbH (Reaction Biology)", "in_short": "as §1"}, "PAK2": {"biological_target": "T9, PAK2 (Homo sapiens, UniProt Q13177)", "T9 construct": "either as full-length or enzymatically active fragments; purchased ProQinase GmbH (Reaction Biology)", "in_short": "as §1"}, "GRK3": {"biological_target": "T10, GRK3 (Homo sapiens, UniProt P35626)", "T10 construct": "either as full-length or enzymatically active fragments; purchased ProQinase GmbH (Reaction Biology)", "in_short": "as §1"}, "CDK20/CycH": {"biological_target": "T11, CDK20/CycH (Homo sapiens, UniProt Q8IZL9)", "T11 construct": "purchased ProQinase GmbH (Reaction Biology)", "in_short": "as §1"}, "EPHA6": {"biological_target": "T12, EPHA6 (Homo sapiens, UniProt Q9UF33)", "T12 construct": "either as full-length or enzymatically active fragments; purchased ProQinase GmbH (Reaction Biology)", "in_short": "as §1"}, "ERBB4": {"biological_target": "T13, ERBB4 (Homo sapiens, UniProt Q15303)", "T13 construct": "either as full-length or enzymatically active fragments; purchased ProQinase GmbH (Reaction Biology); host or cells: Sf9 insect cells or E. coli (not specified per kinase)", "in_short": "as §1"}, "MKNK2": {"biological_target": "T14, MKNK2 (Homo sapiens, UniProt Q9HBH9)", "T14 construct": "either as full-length or enzymatically active fragments; purchased ProQinase GmbH (Reaction Biology)", "in_short": "as §1"}, "CDK9/CycK": {"biological_target": "T15, CDK9/CycK (Homo sapiens, UniProt P50750)", "T15 construct": "either as full-length or enzymatically active fragments; purchased ProQinase GmbH (Reaction Biology)", "in_short": "as §1"}, "PKMzeta": {"biological_target": "T16, PKMzeta (Homo sapiens, UniProt Q05513)", "T16 construct": "either as full-length or enzymatically active fragments; purchased ProQinase GmbH (Reaction Biology); host or cells: Sf9 insect cells or E. coli", "in_short": "as §1"}, "INSRR": {"biological_target": "T17, INSRR (Homo sapiens, UniProt P14616)", "T17 construct": "either as full-length or enzymatically active fragments; purchased ProQinase GmbH (Reaction Biology)", "in_short": "as §1"}, "MARK2": {"biological_target": "T18, MARK2 (Homo sapiens, UniProt Q7KZI7)", "T18 construct": "either as full-length or enzymatically active fragments; purchased ProQinase GmbH (Reaction Biology)", "in_short": "as §1"}, "SRPK1": {"biological_target": "T19, SRPK1 (Homo sapiens, UniProt Q96SB4)", "T19 construct": "either as full-length or enzymatically active fragments; purchased ProQinase GmbH (Reaction Biology)", "T19 sequence (Q96SB4 whole entry, the tested form may be a part)": "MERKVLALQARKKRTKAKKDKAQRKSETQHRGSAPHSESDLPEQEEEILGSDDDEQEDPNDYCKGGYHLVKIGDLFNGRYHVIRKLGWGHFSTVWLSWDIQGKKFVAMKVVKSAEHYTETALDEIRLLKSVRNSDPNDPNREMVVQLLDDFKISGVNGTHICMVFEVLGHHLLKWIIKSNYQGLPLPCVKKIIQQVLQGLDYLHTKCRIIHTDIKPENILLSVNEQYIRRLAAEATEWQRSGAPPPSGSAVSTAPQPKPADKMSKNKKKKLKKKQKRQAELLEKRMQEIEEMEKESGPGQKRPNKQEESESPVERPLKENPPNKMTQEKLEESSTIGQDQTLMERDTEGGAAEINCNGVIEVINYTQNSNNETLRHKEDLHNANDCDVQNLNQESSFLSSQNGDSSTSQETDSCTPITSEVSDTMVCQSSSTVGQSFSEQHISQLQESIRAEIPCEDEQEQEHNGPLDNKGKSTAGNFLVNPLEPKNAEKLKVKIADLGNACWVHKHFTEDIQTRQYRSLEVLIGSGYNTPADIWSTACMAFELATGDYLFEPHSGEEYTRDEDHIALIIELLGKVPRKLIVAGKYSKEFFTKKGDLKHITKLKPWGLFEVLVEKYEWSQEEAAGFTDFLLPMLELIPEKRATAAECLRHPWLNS", "in_short": "as §1"}, "MERTK": {"biological_target": "T20, MERTK (Homo sapiens, UniProt Q12866)", "T20 construct": "either as full-length or enzymatically active fragments; purchased ProQinase GmbH (Reaction Biology)", "in_short": "as §1"}, "SLK": {"biological_target": "T21, SLK (Homo sapiens, UniProt Q9H2G2)", "T21 construct": "either as full-length or enzymatically active fragments; purchased ProQinase GmbH (Reaction Biology)", "in_short": "as §1"}, "TSK2": {"biological_target": "T22, TSK2 (Homo sapiens, UniProt Q96PF2)", "T22 construct": "purchased ProQinase GmbH (Reaction Biology)", "in_short": "as §1"}, "p38gamma": {"biological_target": "T23, p38gamma (Homo sapiens, UniProt P53778)", "T23 construct": "either as full-length or enzymatically active fragments; purchased ProQinase GmbH (Reaction Biology); host or cells: Sf9 insect cells or E. coli (not specified per kinase)", "in_short": "as §1"}, "EPHA2": {"biological_target": "T24, EPHA2 (Homo sapiens, UniProt P29317)", "T24 construct": "either as full-length or enzymatically active fragments; purchased ProQinase GmbH (Reaction Biology)", "in_short": "as §1"}, "TIE2": {"biological_target": "T25, TIE2 (Homo sapiens, UniProt Q02763)", "T25 construct": "either as full-length or enzymatically active fragments; purchased ProQinase GmbH (Reaction Biology); host or cells: Sf9 insect cells or E. coli", "in_short": "as §1"}, "TTBK1": {"biological_target": "T26, TTBK1 (Homo sapiens, UniProt Q5TCY1)", "T26 construct": "either as full-length or enzymatically active fragments; purchased ProQinase GmbH (Reaction Biology)", "T26 sequence (Q5TCY1 whole entry, the tested form may be a part)": "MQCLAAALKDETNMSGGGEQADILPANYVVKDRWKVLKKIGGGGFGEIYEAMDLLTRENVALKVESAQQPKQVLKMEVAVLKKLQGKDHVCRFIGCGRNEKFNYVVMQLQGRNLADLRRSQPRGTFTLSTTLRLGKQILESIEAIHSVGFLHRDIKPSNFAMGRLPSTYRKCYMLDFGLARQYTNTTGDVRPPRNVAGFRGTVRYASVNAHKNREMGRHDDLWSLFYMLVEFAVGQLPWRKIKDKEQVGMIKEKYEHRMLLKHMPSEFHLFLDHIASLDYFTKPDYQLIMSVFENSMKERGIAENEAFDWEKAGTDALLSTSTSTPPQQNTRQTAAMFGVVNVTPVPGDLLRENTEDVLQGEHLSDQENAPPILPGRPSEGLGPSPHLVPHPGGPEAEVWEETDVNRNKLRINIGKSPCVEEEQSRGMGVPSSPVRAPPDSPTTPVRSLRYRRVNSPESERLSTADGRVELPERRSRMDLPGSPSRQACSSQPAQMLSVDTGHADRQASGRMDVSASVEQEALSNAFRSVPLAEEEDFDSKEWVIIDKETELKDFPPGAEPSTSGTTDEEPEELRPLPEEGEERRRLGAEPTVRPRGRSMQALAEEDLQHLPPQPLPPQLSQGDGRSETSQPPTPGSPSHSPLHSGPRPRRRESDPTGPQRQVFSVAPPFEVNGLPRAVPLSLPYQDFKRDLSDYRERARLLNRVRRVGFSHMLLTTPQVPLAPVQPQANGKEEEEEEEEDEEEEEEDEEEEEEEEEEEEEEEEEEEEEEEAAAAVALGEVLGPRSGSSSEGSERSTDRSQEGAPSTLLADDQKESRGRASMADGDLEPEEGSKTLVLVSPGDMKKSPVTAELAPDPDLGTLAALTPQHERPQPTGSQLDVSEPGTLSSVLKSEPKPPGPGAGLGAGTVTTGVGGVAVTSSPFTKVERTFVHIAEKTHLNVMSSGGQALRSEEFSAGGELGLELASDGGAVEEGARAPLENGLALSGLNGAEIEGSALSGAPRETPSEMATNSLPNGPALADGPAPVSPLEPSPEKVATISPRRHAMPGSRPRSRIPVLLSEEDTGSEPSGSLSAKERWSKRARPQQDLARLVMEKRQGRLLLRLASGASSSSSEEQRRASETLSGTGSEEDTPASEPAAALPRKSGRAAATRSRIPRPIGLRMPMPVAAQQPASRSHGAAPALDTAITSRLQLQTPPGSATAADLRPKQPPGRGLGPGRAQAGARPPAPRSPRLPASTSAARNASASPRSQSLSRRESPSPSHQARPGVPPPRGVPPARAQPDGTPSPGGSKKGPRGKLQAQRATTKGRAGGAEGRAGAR", "in_short": "as §1"}, "CAMK2G": {"biological_target": "T27, CAMK2G (Homo sapiens, UniProt Q13555)", "T27 construct": "either as full-length or enzymatically active fragments; purchased ProQinase GmbH (Reaction Biology)", "T27 sequence (Q13555 whole entry, the tested form may be a part)": "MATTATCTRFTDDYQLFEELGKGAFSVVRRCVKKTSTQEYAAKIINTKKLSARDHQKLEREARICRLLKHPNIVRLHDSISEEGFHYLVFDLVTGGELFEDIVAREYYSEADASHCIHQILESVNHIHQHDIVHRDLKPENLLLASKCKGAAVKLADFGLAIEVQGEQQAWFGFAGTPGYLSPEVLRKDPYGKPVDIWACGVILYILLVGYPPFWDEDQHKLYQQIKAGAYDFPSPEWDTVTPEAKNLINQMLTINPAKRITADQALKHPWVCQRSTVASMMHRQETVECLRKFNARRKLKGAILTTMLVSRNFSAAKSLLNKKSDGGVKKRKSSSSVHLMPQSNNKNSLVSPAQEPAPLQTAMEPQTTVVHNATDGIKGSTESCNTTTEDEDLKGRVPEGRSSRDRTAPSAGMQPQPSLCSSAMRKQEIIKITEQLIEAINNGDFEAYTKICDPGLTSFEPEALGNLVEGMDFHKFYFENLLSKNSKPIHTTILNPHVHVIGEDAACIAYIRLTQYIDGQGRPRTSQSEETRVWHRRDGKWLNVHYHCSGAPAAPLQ", "in_short": "as §1"}, "FGR": {"biological_target": "T28, FGR (Homo sapiens, UniProt P09769)", "T28 construct": "purchased ProQinase GmbH (Reaction Biology)", "in_short": "as §1"}, "RPS6KA4": {"biological_target": "T29, RPS6KA4 (Homo sapiens, UniProt O75676)", "T29 construct": "either as full-length or enzymatically active fragments; purchased ProQinase GmbH (Reaction Biology)", "in_short": "as §1"}, "PRKX": {"biological_target": "T30, PRKX (Homo sapiens, UniProt P51817)", "T30 construct": "either as full-length or enzymatically active fragments; purchased ProQinase GmbH (Reaction Biology)", "in_short": "as §1"}, "JAK1": {"biological_target": "T31, JAK1 (Homo sapiens, UniProt P23458)", "T31 construct": "purchased ProQinase GmbH (Reaction Biology)", "in_short": "as §1"}}}
{"smiles": "C=CC(=O)Nc1ccc(C(=O)N2CC[C@@H](Nc3ncc(C#N)cn3)C2)cc1", "note": "[Compound 4, (R)-N-(4-(3-((5-cyanopyrimidin-2-yl)amino)pyrrolidine-1-carbonyl)phenyl)acrylamide]", "values": [{"measurement": "inhibition at 1 µM", "setting": "RON", "value": -1, "unit": "%"}, {"measurement": "inhibition at 1 µM", "setting": "NEK11", "value": -5, "unit": "%"}, {"measurement": "inhibition at 1 µM", "setting": "PKCtheta", "value": 1, "unit": "%"}, {"measurement": "inhibition at 1 µM", "setting": "FGFR2", "value": 0, "unit": "%"}, {"measurement": "inhibition at 1 µM", "setting": "PAK3", "value": 1, "unit": "%"}, {"measurement": "inhibition at 1 µM", "setting": "p38alpha", "value": 3, "unit": "%"}, {"measurement": "inhibition at 1 µM", "setting": "ULK2", "value": 3, "unit": "%"}, {"measurement": "inhibition at 1 µM", "setting": "MKK4", "value": 4, "unit": "%"}, {"measurement": "inhibition at 1 µM", "setting": "PAK2", "value": 16, "unit": "%"}, {"measurement": "inhibition at 1 µM", "setting": "GRK3", "value": 5, "unit": "%"}, {"measurement": "inhibition at 1 µM", "setting": "CDK20/CycH", "value": -2, "unit": "%"}, {"measurement": "inhibition at 1 µM", "setting": "EPHA6", "value": 5, "unit": "%"}, {"measurement": "inhibition at 1 µM", "setting": "ERBB4", "value": 9, "unit": "%"}, {"measurement": "inhibition at 1 µM", "setting": "MKNK2", "value": 4, "unit": "%"}, {"measurement": "inhibition at 1 µM", "setting": "CDK9/CycK", "value": 21, "unit": "%"}, {"measurement": "inhibition at 1 µM", "setting": "PKMzeta", "value": 12, "unit": "%"}, {"measurement": "inhibition at 1 µM", "setting": "INSRR", "value": 5, "unit": "%"}, {"measurement": "inhibition at 1 µM", "setting": "MARK2", "value": 2, "unit": "%"}, {"measurement": "inhibition at 1 µM", "setting": "SRPK1", "value": -8, "unit": "%"}, {"measurement": "inhibition at 1 µM", "setting": "MERTK", "value": -8, "unit": "%"}, {"measurement": "inhibition at 1 µM", "setting": "SLK", "value": 21, "unit": "%"}, {"measurement": "inhibition at 1 µM", "setting": "TSK2", "value": -1, "unit": "%"}, {"measurement": "inhibition at 1 µM", "setting": "p38gamma", "value": 10, "unit": "%"}, {"measurement": "inhibition at 1 µM", "setting": "EPHA2", "value": -5, "unit": "%"}, {"measurement": "inhibition at 1 µM", "setting": "TIE2", "value": -18, "unit": "%"}, {"measurement": "inhibition at 1 µM", "setting": "TTBK1", "value": -5, "unit": "%"}, {"measurement": "inhibition at 1 µM", "setting": "CAMK2G", "value": 5, "unit": "%"}, {"measurement": "inhibition at 1 µM", "setting": "FGR", "value": -1, "unit": "%"}, {"measurement": "inhibition at 1 µM", "setting": "RPS6KA4", "value": 5, "unit": "%"}, {"measurement": "inhibition at 1 µM", "setting": "PRKX", "value": -7, "unit": "%"}, {"measurement": "inhibition at 1 µM", "setting": "JAK1", "value": -1, "unit": "%"}]}
